In ChEMBL document CHEMBL4002566, “S-substituted 3,5-dinitrophenyl 1,3,4-oxadiazole-2-thiols and tetrazole-5-thiols as highly efficient antitubercular agents” (Eur J Med Chem, 2017):

What was measured:
[1] = tested on: MDCK; experiment: Cytotoxicity against MDCK cells assessed as cell viability after 48 hrs by MTS assay; assay type: cell-based; conditions: Canis lupus familiaris
[2] = tested on: Lichtheimia corymbifera; experiment: Antifungal activity against Absidia corymbifera 272 after 24 hrs by broth microdilution method; assay type: functional; conditions: Lichtheimia corymbifera, 272, 24 h
[3] = tested on: Mycobacterium avium; experiment: Antimycobacterial activity against Mycobacterium avium CNCTC My 330/88 after 14 days by micromethod; assay type: functional; conditions: CNCTC My 330/88, 336 h
[4] = tested on: Staphylococcus aureus; experiment: Antibacterial activity against methicillin-resistant Staphylococcus aureus HK5996/08 after 24 hrs by broth microdilution method; assay type: functional; conditions: HK5996/08, 24 h
[5] = tested on: Mycobacterium avium; experiment: Antimycobacterial activity against Mycobacterium avium CNCTC My 330/88 after 21 days by micromethod; assay type: functional; conditions: CNCTC My 330/88, 504 h
[6] = tested on: Candida albicans; experiment: Antifungal activity against Candida albicans ATCC 44859 after 48 hrs by broth microdilution method; assay type: functional; conditions: ATCC 44859, 48 h
[7] = tested on: Klebsiella pneumoniae; experiment: Antibacterial activity against extended spectrum beta-lactamase producing Klebsiella pneumoniae HK14368/08 after 48 hrs by broth microdilution method; assay type: functional; conditions: HK14368/08, 48 h
[8] = Cytotoxicity against human A431 cells assessed as cell viability at 30 uM after 48 hrs by MTS assay relative to control; assay type: cell-based, A-431; conditions: read-out: Activity
[9] = Cytotoxicity against MDCK cells assessed as cell viability at 30 uM after 48 hrs by MTS assay relative to control; assay type: cell-based, Canis lupus familiaris; conditions: dog, read-out: Activity
[10] = tested on: Pseudomonas aeruginosa; experiment: Antibacterial activity against Pseudomonas aeruginosa ATCC 9027 after 24 hrs by broth microdilution method; assay type: functional; conditions: ATCC 9027, 24 h
[11] = tested on: Trichosporon asahii; experiment: Antifungal activity against Trichosporon asahii 1188 after 24 hrs by broth microdilution method; assay type: functional; conditions: Trichosporon asahii, 1188, 24 h
[12] = Cytotoxicity against human HuH7 cells assessed as cell viability at 30 uM after 48 hrs by MTS assay relative to control; assay type: cell-based, Huh-7; conditions: read-out: Activity
[13] = tested on: Candida albicans; experiment: Antifungal activity against Candida albicans ATCC 44859 after 24 hrs by broth microdilution method; assay type: functional; conditions: ATCC 44859, 24 h
[14] = tested on: Mycobacterium kansasii; experiment: Antimycobacterial activity against Mycobacterium kansasii CNCTC My 235/80 after 21 days by micromethod; assay type: functional; conditions: CNCTC My 235/80, 504 h
[15] = tested on: Huh-7; experiment: Cytotoxicity against human HuH7 cells assessed as cell viability after 48 hrs by MTS assay; assay type: cell-based; conditions: Huh-7, 48 h
[16] = tested on: Enterococcus sp.; experiment: Antibacterial activity against Enterococcus sp. HK14365/08 after 48 hrs by broth microdilution method; assay type: functional; conditions: HK14365/08, 48 h
[17] = tested on: Mycobacterium kansasii; experiment: Antimycobacterial activity against Mycobacterium kansasii 6509/96 clinical isolate after 7 days by micromethod; assay type: functional; conditions: 6509/96, 168 h
[18] = tested on: Mycobacterium kansasii; experiment: Antimycobacterial activity against Mycobacterium kansasii 6509/96 clinical isolate after 14 days by micromethod; assay type: functional; conditions: 6509/96, 336 h
[19] = tested on: Pichia kudriavzevii; experiment: Antifungal activity against Candida krusei E28 after 24 hrs by broth microdilution method; assay type: functional; conditions: E28, 24 h
[20] = tested on: Klebsiella pneumoniae; experiment: Antibacterial activity against extended spectrum beta-lactamase producing Klebsiella pneumoniae HK14368/08 after 24 hrs by broth microdilution method; assay type: functional; conditions: HK14368/08, 24 h
[21] = tested on: HepG2; experiment: Cytotoxicity against human HepG2 cells assessed as cell viability after 48 hrs by MTS assay; assay type: cell-based; conditions: HepG2, 48 h
[22] = tested on: Staphylococcus epidermidis; experiment: Antibacterial activity against Staphylococcus epidermidis HK6996/08 after 24 hrs by broth microdilution method; assay type: functional; conditions: HK6996/08, 24 h
[23] = tested on: Escherichia coli; experiment: Antibacterial activity against Escherichia coli ATCC 8739 after 24 hrs by broth microdilution method; assay type: functional; conditions: ATCC 8739, 24 h
[24] = tested on: Candida tropicalis; experiment: Antifungal activity against Candida tropicalis 156 after 48 hrs by broth microdilution method; assay type: functional; conditions: Candida tropicalis, 156, 48 h
[25] = tested on: Enterococcus sp.; experiment: Antibacterial activity against Enterococcus sp. HK14365/08 after 24 hrs by broth microdilution method; assay type: functional; conditions: HK14365/08, 24 h
[26] = tested on: Mycobacterium tuberculosis; experiment: Antimycobacterial activity against Mycobacterium tuberculosis CNCTC My 331/88 after 14 days by micromethod; assay type: functional; conditions: CNCTC My 331/88, 336 h
[27] = tested on: Escherichia coli; experiment: Antibacterial activity against Escherichia coli ATCC 8739 after 48 hrs by broth microdilution method; assay type: functional; conditions: ATCC 8739, 48 h
[28] = tested on: Aspergillus fumigatus; experiment: Antifungal activity against Aspergillus fumigatus 231 after 24 hrs by broth microdilution method; assay type: functional; conditions: Aspergillus fumigatus, 231, 24 h
[29] = tested on: Lichtheimia corymbifera; experiment: Antifungal activity against Absidia corymbifera 272 after 48 hrs by broth microdilution method; assay type: functional; conditions: Lichtheimia corymbifera, 272, 48 h
[30] = tested on: Nakaseomyces glabratus; experiment: Antifungal activity against Candida glabrata 20/I after 48 hrs by broth microdilution method; assay type: functional
[31] = tested on: Staphylococcus aureus; experiment: Antibacterial activity against Staphylococcus aureus ATCC 6538 after 48 hrs by broth microdilution method; assay type: functional; conditions: ATCC 6538, 48 h
[32] = tested on: Staphylococcus aureus; experiment: Antibacterial activity against methicillin-resistant Staphylococcus aureus HK5996/08 after 48 hrs by broth microdilution method; assay type: functional; conditions: HK5996/08, 48 h
[33] = tested on: Aspergillus fumigatus; experiment: Antifungal activity against Aspergillus fumigatus 231 after 48 hrs by broth microdilution method; assay type: functional; conditions: Aspergillus fumigatus, 231, 48 h
[34] = tested on: Nakaseomyces glabratus; experiment: Antifungal activity against Candida glabrata 20/I after 24 hrs by broth microdilution method; assay type: functional
[35] = tested on: Pichia kudriavzevii; experiment: Antifungal activity against Candida krusei E28 after 48 hrs by broth microdilution method; assay type: functional; conditions: E28, 48 h
[36] = tested on: Trichophyton mentagrophytes; experiment: Antifungal activity against Trichophyton mentagrophytes 445 after 120 hrs by broth microdilution method; assay type: functional; conditions: Trichophyton mentagrophytes, 445, 120 h
[37] = tested on: Mycobacterium kansasii; experiment: Antimycobacterial activity against Mycobacterium kansasii CNCTC My 235/80 after 7 days by micromethod; assay type: functional; conditions: CNCTC My 235/80, 168 h
[38] = tested on: Trichophyton mentagrophytes; experiment: Antifungal activity against Trichophyton mentagrophytes 445 after 72 hrs by broth microdilution method; assay type: functional; conditions: Trichophyton mentagrophytes, 445, 72 h
[39] = tested on: Staphylococcus epidermidis; experiment: Antibacterial activity against Staphylococcus epidermidis HK6996/08 after 48 hrs by broth microdilution method; assay type: functional; conditions: HK6996/08, 48 h
[40] = Cytotoxicity against human HepG2 cells assessed as cell viability at 30 uM after 48 hrs by MTS assay relative to control; assay type: cell-based; conditions: read-out: Activity
[41] = tested on: Staphylococcus aureus; experiment: Antibacterial activity against Staphylococcus aureus ATCC 6538 after 24 hrs by broth microdilution method; assay type: functional; conditions: ATCC 6538, 24 h
[42] = tested on: Mycobacterium kansasii; experiment: Antimycobacterial activity against Mycobacterium kansasii CNCTC My 235/80 after 14 days by micromethod; assay type: functional; conditions: CNCTC My 235/80, 336 h
[43] = Selectivity index, ratio of IC50 for human HepG2 cells to MIC for Mycobacterium tuberculosis; assay type: toxicity; conditions: read-out: Selectivity Index
[44] = tested on: Klebsiella pneumoniae; experiment: Antibacterial activity against Klebsiella pneumoniae HK11750/08 after 24 hrs by broth microdilution method; assay type: functional; conditions: HK11750/08, 24 h
[45] = tested on: Mycobacterium kansasii; experiment: Antimycobacterial activity against Mycobacterium kansasii 6509/96 clinical isolate after 21 days by micromethod; assay type: functional; conditions: 6509/96, 504 h
[46] = tested on: Pseudomonas aeruginosa; experiment: Antibacterial activity against Pseudomonas aeruginosa ATCC 9027 after 48 hrs by broth microdilution method; assay type: functional; conditions: ATCC 9027, 48 h
[47] = tested on: Klebsiella pneumoniae; experiment: Antibacterial activity against Klebsiella pneumoniae HK11750/08 after 48 hrs by broth microdilution method; assay type: functional; conditions: HK11750/08, 48 h
[48] = tested on: Candida tropicalis; experiment: Antifungal activity against Candida tropicalis 156 after 24 hrs by broth microdilution method; assay type: functional; conditions: Candida tropicalis, 156, 24 h
[49] = tested on: Mycobacterium tuberculosis; experiment: Antimycobacterial activity against Mycobacterium tuberculosis CNCTC My 331/88 after 21 days by micromethod; assay type: functional; conditions: CNCTC My 331/88, 504 h
[50] = tested on: Trichosporon asahii; experiment: Antifungal activity against Trichosporon asahii 1188 after 48 hrs by broth microdilution method; assay type: functional; conditions: Trichosporon asahii, 1188, 48 h
[51] = tested on: A-431; experiment: Cytotoxicity against human A431 cells assessed as cell viability after 48 hrs by MTS assay; assay type: cell-based; conditions: A-431, 48 h

COc1ccc(CSc2nnc(-c3cc([N+](=O)[O-])cc([N+](=O)[O-])c3)o2)cc1
0.06 µM: MIC [49]
0.03 µM: MIC [26]
> 1000: selectivity ratio [43]
93%: viability at 48 h, 30 µM [8]
4 µM: MIC [3] | MIC [5]
119%: viability at 48 h, 30 µM [9]
> 500 µM: MIC [2] | MIC [4] | MIC [6] | MIC [7] | MIC [10] | MIC [11] | MIC [13] | MIC [16] | MIC [19] | MIC [20] | MIC [22] | MIC [23] | MIC [24] | MIC [25] | MIC [27] | MIC [28] | MIC [29] | MIC [30] | MIC [31] | MIC [32] | MIC [33] | MIC [34] | MIC [35] | MIC [36] | MIC [38] | MIC [39] | MIC [41] | MIC [44] | MIC [46] | MIC [47] | MIC [48] | MIC [50]
0.25 µM: MIC [18] | MIC [45]
118%: viability at 48 h, 30 µM [12]
126%: viability at 48 h, 30 µM [40]
0.125 µM: MIC [14] | MIC [17] | MIC [37] | MIC [42]
> 30 µM: IC50 [1] | IC50 [15] | IC50 [21] | IC50 [51]

O=[N+]([O-])c1cc(-c2nnc(SCc3ccccc3Cl)o2)cc([N+](=O)[O-])c1
0.03 µM: MIC [26] | MIC [49]
8 µM: MIC [5]
144%: viability at 48 h, 30 µM [12]
0.06 µM: MIC [17] | MIC [18] | MIC [37]
> 30 µM: IC50 [1] | IC50 [15] | IC50 [21] | IC50 [51]
115%: viability at 48 h, 30 µM [9]
0.125 µM: MIC [14] | MIC [42] | MIC [45]
91%: viability at 48 h, 30 µM [8]
129%: viability at 48 h, 30 µM [40]
4 µM: MIC [3]
> 1000: selectivity ratio [43]
> 500 µM: MIC [2] | MIC [4] | MIC [6] | MIC [7] | MIC [10] | MIC [11] | MIC [13] | MIC [16] | MIC [19] | MIC [20] | MIC [22] | MIC [23] | MIC [24] | MIC [25] | MIC [27] | MIC [28] | MIC [29] | MIC [30] | MIC [31] | MIC [32] | MIC [33] | MIC [34] | MIC [35] | MIC [36] | MIC [38] | MIC [39] | MIC [41] | MIC [44] | MIC [46] | MIC [47] | MIC [48] | MIC [50]

O=[N+]([O-])c1cc(-c2nnc(SCc3ccc(Cl)c(Cl)c3)o2)cc([N+](=O)[O-])c1
16 µM: MIC [3]
0.03 µM: MIC [14] | MIC [17] | MIC [18] | MIC [26] | MIC [37] | MIC [42] | MIC [45] | MIC [49]
153%: viability at 48 h, 30 µM [12]
126%: viability at 48 h, 30 µM [8]
32 µM: MIC [5]
125%: viability at 48 h, 30 µM [40]
> 1000: selectivity ratio [43]
91%: viability at 48 h, 30 µM [9]
> 30 µM: IC50 [1] | IC50 [15] | IC50 [21] | IC50 [51]
> 125 µM: MIC [2] | MIC [4] | MIC [6] | MIC [7] | MIC [10] | MIC [11] | MIC [13] | MIC [16] | MIC [19] | MIC [20] | MIC [22] | MIC [23] | MIC [24] | MIC [25] | MIC [27] | MIC [28] | MIC [29] | MIC [30] | MIC [31] | MIC [32] | MIC [33] | MIC [34] | MIC [35] | MIC [36] | MIC [38] | MIC [39] | MIC [41] | MIC [44] | MIC [46] | MIC [47] | MIC [48] | MIC [50]
